Publication PMC6658782, “The Novel Arylamidine T-2307 Selectively Disrupts Yeast Mitochondrial Function by Inhibiting Respiratory Chain Complexes” (Antimicrobial Agents and Chemotherapy, 2019)

Tests used:
whole yeast cells = assay: Oxygen consumption of whole yeast cells (oxygen electrode); type: cell-based, Saccharomyces cerevisiae; settings: T-2307 30, 100, 300, 1,000 μM; antimycin A 10 μg/ml; CCCP 4 μM; 23°C; 3 × 10^7 cells/ml
[1] = target: respiratory chain complex II + III (Bos taurus, UniProt P00125+P00157+P13272); assay: MitoCheck complex II/III activity assay, bovine heart mitochondria; type: biochemical; settings: bovine heart; 1 mM TTFA, 5 μg/ml antimycin A; read-out: Inhibition (%) of positive control, Complex II+III
Saccharomyces cerevisiae = assay: Intracellular ATP levels in yeast (luminescence assay); type: cell-based; settings: 8 h exposure at 30°C, semisynthetic medium; antimycin A 0.5 μg/ml
Procedure: Intracellular ATP levels were measured using a previously described method with the following modifications ([25]). S. cerevisiae was grown overnight in a semisynthetic medium (per liter: 20 g of lactate, 0.5 g of glucose, 3 g of yeast extract, 1 g of KH2PO4, 1 g of NH4Cl, 0.5 g of CaCl2·2H2O, 0.5 g of NaCl, and 0.6 g of MgCl2·6H2O; adjusted to pH 5.5 with NaOH). The cells were harvested during the logarithmic-growth phase by centrifugation (3,000 × g at room temperature for 5 min). They were then washed and resuspended in distilled water. The suspension was diluted in a semisynthetic medium to yield 1 × 10^6 cells/ml. After 5 min of incubation at 30°C, T-2307 and antimycin A were added to the suspension. Further, the cells were incubated for 8 h at 30°C. Subsequently, the cells were collected by centrifugation (4,200 × g at 4°C for 5 min). After washes performed with phosphate-buffered saline (PBS; pH 7.2), the cells were resuspended in PBS and diluted to yield 1 × 10^6 cells/ml. ATP levels were measured using the BacTiter-Glo microbial cell viability assay (Promega, Madison, WI, USA), following the manufacturer’s instructions. Luminescence was measured using a microplate reader POLARstar Optima (BMG Labtech GmbH). To determine the viable cell counts, the cell suspension was diluted with PBS and spread on YPD agar. After a 2-day incubation at 30°C, colonies were counted. The intracellular ATP level is expressed as relative light units (RLU)/CFU.

[2] = target: respiratory chain complex II + III (Saccharomyces cerevisiae, UniProt P00163+P07143+P08067); assay: Respiratory chain enzymatic activity, complexes II plus III, S. cerevisiae; type: biochemical; settings: S. cerevisiae; 10 mM malonic acid, 10 μg/ml antimycin A; read-out: Inhibition (%) of positive control, Complex II+III
[3] = target: T1, respiratory chain complex II + III (Candida albicans, UniProt A0A1D8PHA3+A0A1D8PJX3+P0C8L0); assay: Respiratory chain enzymatic activity, complexes II plus III, C. albicans; type: biochemical; settings: C. albicans; 10 mM malonic acid, 10 μg/ml antimycin A; read-out: Inhibition (%) of positive control, Complex II+III
T1 sequence (P0C8L0 1-387): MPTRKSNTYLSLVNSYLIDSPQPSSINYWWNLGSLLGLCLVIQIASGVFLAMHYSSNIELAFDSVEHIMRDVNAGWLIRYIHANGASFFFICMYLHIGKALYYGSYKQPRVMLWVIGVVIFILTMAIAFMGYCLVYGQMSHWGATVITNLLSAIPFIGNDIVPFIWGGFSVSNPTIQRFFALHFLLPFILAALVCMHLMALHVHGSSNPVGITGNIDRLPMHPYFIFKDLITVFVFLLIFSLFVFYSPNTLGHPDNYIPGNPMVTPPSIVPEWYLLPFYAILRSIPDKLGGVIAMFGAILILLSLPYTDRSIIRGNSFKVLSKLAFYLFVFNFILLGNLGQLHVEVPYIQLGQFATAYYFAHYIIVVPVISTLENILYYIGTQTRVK
T1 sequence (A0A1D8PHA3 43-288): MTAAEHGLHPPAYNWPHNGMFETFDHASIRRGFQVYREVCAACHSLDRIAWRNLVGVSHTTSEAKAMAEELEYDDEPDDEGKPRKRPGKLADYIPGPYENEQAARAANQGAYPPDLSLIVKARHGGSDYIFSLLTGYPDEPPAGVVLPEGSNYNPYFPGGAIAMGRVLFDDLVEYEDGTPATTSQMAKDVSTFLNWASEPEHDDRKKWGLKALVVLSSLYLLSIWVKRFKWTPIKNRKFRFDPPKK
T1 sequence (A0A1D8PJX3 30-213): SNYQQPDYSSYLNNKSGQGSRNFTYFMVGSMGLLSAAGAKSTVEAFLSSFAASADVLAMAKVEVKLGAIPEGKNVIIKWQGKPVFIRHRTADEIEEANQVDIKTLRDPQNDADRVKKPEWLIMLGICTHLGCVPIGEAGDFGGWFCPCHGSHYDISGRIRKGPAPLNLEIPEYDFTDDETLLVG

[4] = system: isolated yeast mitochondria; assay: Mitochondrial oxygen consumption (MitoXpress probe); type: biochemical, Saccharomyces cerevisiae
Procedure: S. cerevisiae from frozen stock (−80°C) was inoculated into yeast extract-peptone-glucose (YPD) medium (1% yeast extract, 2% peptone, and 2% glucose) and grown for 24 h at 30°C. The cultured cells were subcultured into yeast extract-peptone-galactose (YPGal) medium (1% yeast extract, 2% peptone, 2% galactose, and 0.1% glucose) and incubated overnight with continuous shaking at 30°C. When the optical density at 600 nm reached approximately 1.0, the cells were collected by centrifugation (3,000 × g at room temperature for 5 min). Intact mitochondria were isolated as per a previously described protocol ([35]) with minor modifications as follows. Yeast cells were converted to spheroplasts by incubation with Zymolyase-20T (Nacalai Tesque, Inc., Kyoto, Japan) (4 mg of Zymolyase-20T/g [wet weight] of cells) and disrupted using a Dounce homogenizer. The crude mitochondrial fraction was isolated by differential centrifugation ([35]). […]. The mitochondrial protein concentration was determined using the DC protein assay (Bio-Rad Laboratories, Inc., Hercules, CA, USA) following the manufacturer’s instructions. The mitochondrial stock solution was maintained on ice during the oxygen consumption experiment.
The mitochondrial oxygen consumption was measured using a phosphorescent oxygen-sensitive probe, MitoXpress-Xtra (Agilent Technologies, Santa Clara, CA, USA), as described previously ([16], [36]). Succinate was used as a respiratory substrate in this assay. […] A microplate reader, PHERAstar Plus (BMG Labtech GmbH, Ortenberg, Germany), was used to read. The time-resolved fluorescence protocol was set to read the plate at 1.5-min intervals for 60 min at an excitation wavelength of 337 nm, an emission wavelength of 665 nm, a delay time of 40 μs, and a gate time of 100 μs at 30°C.
[…]. […] For quantitative assessment, OCR was determined from the slope of the initial 7.5 min. OCR is expressed as micromolar of O2 per minute per milligram of protein.
The drug concentration was expressed as micromoles per milligram of protein. […]

[5] = target: respiratory chain complex II (Candida albicans, UniProt Q59QN7+Q5A1E8+Q5AJZ8+Q5ALU6); assay: Respiratory chain enzymatic activity, complex II, C. albicans; type: biochemical; settings: 10 mM malonic acid, read-out: Inhibition (%) of positive control, Complex II
Sequence of respiratory chain complex II (Candida albicans, UniProt Q59QN7+Q5A1E8+Q5AJZ8+Q5ALU6) (Q5A1E8 26-641): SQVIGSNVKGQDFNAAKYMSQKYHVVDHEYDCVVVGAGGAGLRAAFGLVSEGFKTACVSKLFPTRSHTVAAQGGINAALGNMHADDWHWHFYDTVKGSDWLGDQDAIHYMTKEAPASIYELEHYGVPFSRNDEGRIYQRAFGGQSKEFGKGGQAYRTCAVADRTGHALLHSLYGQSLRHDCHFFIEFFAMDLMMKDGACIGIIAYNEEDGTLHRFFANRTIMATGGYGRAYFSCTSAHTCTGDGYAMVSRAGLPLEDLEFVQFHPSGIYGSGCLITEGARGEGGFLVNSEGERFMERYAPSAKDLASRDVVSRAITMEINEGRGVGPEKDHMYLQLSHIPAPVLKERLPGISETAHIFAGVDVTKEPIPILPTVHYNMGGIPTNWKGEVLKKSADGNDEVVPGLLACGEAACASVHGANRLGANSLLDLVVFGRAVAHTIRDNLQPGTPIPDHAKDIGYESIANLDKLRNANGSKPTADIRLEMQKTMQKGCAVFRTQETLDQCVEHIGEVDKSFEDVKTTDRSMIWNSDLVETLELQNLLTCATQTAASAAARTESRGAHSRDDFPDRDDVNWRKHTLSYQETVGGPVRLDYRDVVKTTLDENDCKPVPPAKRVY
Sequence of respiratory chain complex II (Candida albicans, UniProt Q59QN7+Q5A1E8+Q5AJZ8+Q5ALU6) (Q59QN7 20-263): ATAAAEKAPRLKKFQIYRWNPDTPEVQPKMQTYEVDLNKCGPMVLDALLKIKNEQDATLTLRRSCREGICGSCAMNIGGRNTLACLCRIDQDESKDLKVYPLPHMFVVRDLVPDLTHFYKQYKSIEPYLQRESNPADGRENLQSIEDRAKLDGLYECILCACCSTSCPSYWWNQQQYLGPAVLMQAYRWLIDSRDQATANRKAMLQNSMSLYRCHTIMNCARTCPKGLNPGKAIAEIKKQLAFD
Sequence of respiratory chain complex II (Candida albicans, UniProt Q59QN7+Q5A1E8+Q5AJZ8+Q5ALU6) (Q5ALU6 32-176): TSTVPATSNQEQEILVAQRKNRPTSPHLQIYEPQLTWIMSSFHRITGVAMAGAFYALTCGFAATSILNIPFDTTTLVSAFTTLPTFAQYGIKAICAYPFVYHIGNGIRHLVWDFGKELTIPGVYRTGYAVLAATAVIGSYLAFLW
Sequence of respiratory chain complex II (Candida albicans, UniProt Q59QN7+Q5A1E8+Q5AJZ8+Q5ALU6) (Q5AJZ8 28-164): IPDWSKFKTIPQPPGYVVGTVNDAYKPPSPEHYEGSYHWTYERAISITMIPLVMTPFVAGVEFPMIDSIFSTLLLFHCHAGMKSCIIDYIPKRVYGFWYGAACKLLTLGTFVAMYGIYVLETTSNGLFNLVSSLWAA

[6] = target: respiratory chain complex II (Saccharomyces cerevisiae, UniProt P21801+P33421+P37298+Q00711); assay: Respiratory chain enzymatic activity, complex II, S. cerevisiae; type: biochemical; settings: S. cerevisiae; 10 mM malonic acid; read-out: Inhibition (%) of positive control, Complex II
Sequence of respiratory chain complex II (Saccharomyces cerevisiae, UniProt P21801+P33421+P37298+Q00711) (P21801 21-266): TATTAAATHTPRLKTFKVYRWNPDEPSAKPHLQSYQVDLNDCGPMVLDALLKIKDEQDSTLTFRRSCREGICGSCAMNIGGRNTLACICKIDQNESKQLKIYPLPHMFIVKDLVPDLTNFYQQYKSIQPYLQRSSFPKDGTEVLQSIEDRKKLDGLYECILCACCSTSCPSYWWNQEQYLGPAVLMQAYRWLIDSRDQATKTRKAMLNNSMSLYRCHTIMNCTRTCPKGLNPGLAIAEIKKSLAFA
Sequence of respiratory chain complex II (Saccharomyces cerevisiae, UniProt P21801+P33421+P37298+Q00711) (P33421 51-198): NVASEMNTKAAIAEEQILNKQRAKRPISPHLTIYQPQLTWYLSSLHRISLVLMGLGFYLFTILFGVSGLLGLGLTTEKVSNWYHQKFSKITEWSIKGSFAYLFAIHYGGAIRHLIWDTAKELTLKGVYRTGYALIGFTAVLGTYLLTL
Sequence of respiratory chain complex II (Saccharomyces cerevisiae, UniProt P21801+P33421+P37298+Q00711) (P37298 32-181): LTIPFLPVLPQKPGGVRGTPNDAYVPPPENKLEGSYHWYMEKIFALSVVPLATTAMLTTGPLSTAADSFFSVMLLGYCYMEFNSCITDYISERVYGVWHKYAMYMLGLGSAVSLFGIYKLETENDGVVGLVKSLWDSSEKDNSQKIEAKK
Sequence of respiratory chain complex II (Saccharomyces cerevisiae, UniProt P21801+P33421+P37298+Q00711) (Q00711 29-640): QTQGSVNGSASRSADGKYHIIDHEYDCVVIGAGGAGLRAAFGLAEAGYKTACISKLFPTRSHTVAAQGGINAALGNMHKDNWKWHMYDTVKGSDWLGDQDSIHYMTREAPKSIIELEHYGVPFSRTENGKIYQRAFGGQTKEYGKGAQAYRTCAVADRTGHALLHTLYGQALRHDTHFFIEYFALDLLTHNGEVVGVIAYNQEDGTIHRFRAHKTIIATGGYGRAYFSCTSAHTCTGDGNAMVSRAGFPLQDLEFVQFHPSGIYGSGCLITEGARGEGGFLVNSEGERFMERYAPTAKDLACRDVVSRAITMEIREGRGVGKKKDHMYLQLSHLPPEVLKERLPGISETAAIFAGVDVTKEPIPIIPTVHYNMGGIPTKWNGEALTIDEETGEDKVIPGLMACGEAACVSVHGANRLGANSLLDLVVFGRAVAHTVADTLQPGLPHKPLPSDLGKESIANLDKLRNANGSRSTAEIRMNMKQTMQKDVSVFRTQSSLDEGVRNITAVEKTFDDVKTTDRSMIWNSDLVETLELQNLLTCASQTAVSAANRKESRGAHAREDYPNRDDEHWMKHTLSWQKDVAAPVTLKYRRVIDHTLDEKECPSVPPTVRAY

complex III = settings: cited from earlier work
NADH dehydrogenase = NADH dehydrogenase activity, C. albicans; type: biochemical, Candida albicans; settings: C. albicans; 10 μM rotenone
[7] = target: respiratory chain complex I (Bos taurus, UniProt P03887+P17694+P42026); assay: MitoCheck complex I activity assay, bovine heart mitochondria; type: biochemical; settings: bovine heart; 2 μM rotenone; read-out: Inhibition (%) of positive control, complex I
Procedure: The enzymatic activities of bovine heart mitochondrial respiratory chain complexes were determined using MitoCheck complex I, complex II/III, and complex IV activity assay kits (Cayman Chemical, Ann Arbor, MI, USA). Bovine heart mitochondria from these kits were used for experiments. The experiments were performed following the manufacturer’s instructions. In the experiments, 2 μM rotenone, 1 mM KCN, and both 1 mM TTFA and 5 μg/ml antimycin A served as positive controls for the inhibition of complex I, complex IV, and complexes II plus III, respectively.
In all experiments, the reaction rate of each enzyme was determined by calculating the slope of the linear portion of the curve. Complex I activity in C. albicans was calculated by subtracting the rotenone-insensitive enzymatic activity (with 10 μM rotenone) from the NADH dehydrogenase activity (without rotenone).
OCRs in isolated mitochondria and intracellular ATP levels were compared between the control and treatment groups using the parametric Dunnett’s multiple-comparison test. P values of <0.05 (comparison of multiple groups) were considered statistically significant. IC50 values were determined from dose-response curves compared with untreated control samples using a four-parameter logistic curve-fitting analysis. Data were analyzed using JMP 13.0 (SAS Institute Japan Ltd., Tokyo, Japan).

In the case of `N#CC(C#N)=NNc1cccc(Cl)c1` [CCCP, carbonyl cyanide m-chlorophenylhydrazone], the “effect on oxygen consumption in whole yeast cells” value (whole yeast cells) is reported as “stimulated oxygen consumption”.
For `CCCCCC[C@H]1C(=O)O[C@H](C)[C@H](NC(=O)c2cccc(NC=O)c2O)C(=O)O[C@@H](C)[C@@H]1OC(=O)CC(C)C` [Antimycin A], the inhibition at 5 µg/mL [1] was 92%, the “effect on intracellular ATP level” value (Saccharomyces cerevisiae) was “significantly decreased” and the inhibition at 10 µg/mL [2] was 97%. The inhibition at 10 µg/mL [3] was 98% and the “effect on oxygen consumption in whole yeast cells” value (whole yeast cells) was “completely and immediately inhibited respiration”.
In the case of Oligomycin A, the “effect on mitochondrial oxygen consumption rate (OCR)” value ([4]; ADP-stimulated condition (succinate + ADP)) is reported as “significantly inhibited” and the “effect on mitochondrial oxygen consumption rate (OCR)” value ([4]; basal condition (succinate, absence of ADP)) is reported as “did not decrease the OCR”.
For `O=C(O)CC(=O)O` [Malonic acid], the inhibition at 10000 µM [5] was 100%, the inhibition at 10000 µM [2] was 97% and the inhibition at 10000 µM [6] was 100%. It also gave an inhibition at 10000 µM [3] of 98%.
Work on `O=C(CC(=O)C(F)(F)F)c1cccs1` [TTFA, 2-thenoyltrifluoroacetone, reference compound] yielded an inhibition at 1000 µM [1] of 86%.
In the case of `C/C=C/[C@@H]1[C@H]2C[C@@H](C)CC[C@@H]2C(C)=C[C@H]1C(=O)c1c(O)c(-c2ccc(O)cc2)c[nH]c1=O` [ilicicolin H], the “selectivity between yeast and bovine complex III” value (complex III) is listed as over 70 fold.
For `C=C(C)[C@H]1Cc2c(ccc3c2O[C@@H]2COc4cc(OC)c(OC)cc4[C@@H]2C3=O)O1` [Rotenone, rotenone, reference compound], the “Inhibition (%) of positive control, NADH dehydrogenase (including Complex I)” value (NADH dehydrogenase) was 59% and the inhibition at 2 µM [7] was 68%.
